Results reported in patent publication US20260109707A1, “HETEROBIFUNCTIONAL COMPOUNDS AND METHODS OF TREATING DISEASE” (Halda Therapeutics OpCo. Inc., priority 2022, published 2026).
Read-outs that look alike come from different tables or passages of the source.

Columns and labels:
[1] = system: T-Rex 293 cell line SC3 cells having increased expression of androgen receptor protein due to exposure to doxycycline; test: Cellular growth inhibition assay, T-Rex 293 SC3 cells with doxycycline (CellTiter-Glo, 72 hours); assay type: cell-based; conditions: T-Rex 293 SC3 cells with increased androgen receptor expression due to doxycycline (10 ng/mL)
In short: (§1)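 Growth inhibition is measured in an inducible AR-expressing T-Rex 293 clone, SC3, cultured with or without 10 ng/mL doxycycline in hormone-depleted medium. Test compounds are applied for 72 hours. GI50 values derive from CellTiter-Glo 2.0 signal fitted by four-parameter regression.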

VCaP cells = test: Cellular growth inhibition assay for VCaP cells (CellTiter-Glo, 72 hours); assay type: cell-based, human
In short: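 Luminescent viability signal after 72 h of compound exposure gave GI50 values by four-parameter nonlinear regression. Compounds were added in 0.5% DMSO to cells plated 24 h earlier at 5000/well in DMEM containing 10% FBS.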

[2] = system: T-Rex 293 cell line SC3 cells lacking increased expression of androgen receptor protein; test: Cellular growth inhibition assay, T-Rex 293 SC3 cells without doxycycline (CellTiter-Glo, 72 hours); assay type: cell-based; conditions: T-Rex 293 cell line SC3 cells not exposed to doxycycline (lacking increased androgen receptor expression)
In short: as §1

Row | Compound | GI50 (VCaP cells; Homo sapiens, VCaP, 72 h) | GI50 (VCaP cells) | GI50 ([1]; 72 h) | GI50 ([2]; 72 h) | GI50 [1] | GI50 [2]
1 | Cc1sc2c(c1C)C(c1ccc(CC3CC(CC4CCN(c5ccc(C(=O)N[C@H]6CC[C@H](Oc7ccc(C#N)c(Cl)c7)CC6)nn5)CC4)C3)cc1)=N[C@@H](C)c1nnc(C)n1-2 (stereo partly drawn) [I-628] | < 0.5 µM |  | < 0.5 µM | > 3 µM |  | 
2 | Cc1sc2c(c1C)C(c1ccc(CC3CC(CC4CCN(c5ccc(C(=O)N[C@H]6CC[C@H](Oc7ccc(C#N)c(Cl)c7)CC6)nn5)CC4)C3)cc1)=N[C@@H](C)c1nnc(C)n1-2 (stereo partly drawn) [I-629] |  | < 0.5 µM |  |  | < 0.5 µM | > 3 µM
3 | Cc1sc2c(c1C)C(c1ccc(C3CCC4(CC3)CCN(c3ccc(C(=O)N[C@H]5CC[C@H](Oc6ccc(C#N)c(Cl)c6)CC5)nn3)CC4)nc1)=N[C@@H](C)c1nnc(C)n1-2 [I-630] |  | 1.5 to 3 µM | < 0.5 µM | < 0.5 µM |  | 
4 | CC[C@@H]1N=C(c2ccc(OC3(C)CC4(CN(c5ccc(C(=O)N[C@H]6CC[C@H](Oc7ccc(C#N)c(Cl)c7)CC6)nn5)C4)C3)cc2)c2c(sc(C)c2C)-n2c(C)nnc21 [I-632] | < 0.5 µM |  | < 0.5 µM | < 0.5 µM |  | 
5 | Cc1sc2c(c1C)C(c1ccc(OCC3CCC4(C3)CN(c3ccc(C(=O)N[C@H]5CC[C@H](Oc6ccc(C#N)c(Cl)c6)CC5)nn3)CCO4)cc1)=N[C@@H](C)c1nnc(C)n1-2 (stereo partly drawn) [I-638] |  | 1.5 to 3 µM |  |  | < 0.5 µM | < 0.5 µM
6 | Cc1sc2c(c1C)C(c1ccc(OCC3CCC4(C3)CN(c3ccc(C(=O)N[C@H]5CC[C@H](Oc6ccc(C#N)c(Cl)c6)CC5)nn3)CCO4)cc1)=N[C@@H](C)c1nnc(C)n1-2 (stereo partly drawn) [I-639] |  | > 3 µM |  |  | < 0.5 µM | > 3 µM
7 | Cc1sc2c(c1C)C(c1ccc(CC3CN(C(C)(C)C4CCN(c5ccc(C(=O)N[C@H]6CC[C@H](Oc7ccc(C#N)c(Cl)c7)CC6)nn5)CC4)C3)cc1)=N[C@@H](C)c1nnc(C)n1-2 [I-640] | < 0.5 µM |  | < 0.5 µM | > 3 µM |  | 
8 | Cc1sc2c(c1C)C(c1ccc(N3CCC4(CCN(c5ccc(C(=O)N[C@H]6CC[C@H](Oc7ccc(C#N)c(Cl)c7)CC6)nn5)CC4)C3)cc1)=N[C@@H](C)c1nnc(C)n1-2 [I-641] | < 0.5 µM |  | < 0.5 µM | < 0.5 µM |  | 
9 | Cc1sc2c(c1C)C(c1ccc(C#CC3CC(Cc4ccc(C(=O)N[C@H]5CC[C@H](Oc6ccc(C#N)c(Cl)c6)CC5)nn4)C3)cc1)=N[C@@H](Cc1ncco1)c1nnc(C)n1-2 (stereo partly drawn) [I-645] | < 0.5 µM |  | < 0.5 µM |  |  | > 3 µM
10 | Cc1sc2c(c1C)C(c1ccc(C#CC3CC(Cc4ccc(C(=O)N[C@H]5CC[C@H](Oc6ccc(C#N)c(Cl)c6)CC5)nn4)C3)cc1)=N[C@@H](Cc1ncco1)c1nnc(C)n1-2 (stereo partly drawn) [I-646] |  | < 0.5 µM |  |  | < 0.5 µM | < 0.5 µM
11 | Cc1sc2c(c1C)C(c1cccc(OCCC3CCN(c4ccc(C(=O)N[C@H]5CC[C@H](Oc6ccc(C#N)c(Cl)c6)CC5)nn4)CC3)c1)=N[C@@H](C)c1nnc(C)n1-2 [I-647] | < 0.5 µM |  | < 0.5 µM | > 3 µM |  | 
12 | Cc1sc2c(c1C)C(c1cccc(OC3CC4(CCN(c5ccc(C(=O)N[C@H]6CC[C@H](Oc7ccc(C#N)c(Cl)c7)CC6)nn5)CC4)C3)c1)=N[C@@H](C)c1nnc(C)n1-2 [I-648] | < 0.5 µM |  | < 0.5 µM | 0.5 to 1.5 µM |  | 
13 | Cc1sc2c(c1C)C(c1ccccc1OC1CCN(c3ccc(C(=O)N[C@H]4CC[C@H](Oc5ccc(C#N)c(Cl)c5)CC4)nn3)CC1)=N[C@@H](C)c1nnc(C)n1-2 [I-649] | < 0.5 µM |  | > 3 µM | > 3 µM |  | 
14 | Cc1sc2c(c1C)C(c1ccccc1OCC1CCN(c3ccc(C(=O)N[C@H]4CC[C@H](Oc5ccc(C#N)c(Cl)c5)CC4)nn3)CC1)=N[C@@H](C)c1nnc(C)n1-2 [I-650] |  | 1.5 to 3 µM |  |  | < 0.5 µM | > 3 µM
15 | Cc1sc2c(c1C)C(c1ccccc1OC1CC3(CCN(c4ccc(C(=O)N[C@H]5CC[C@H](Oc6ccc(C#N)c(Cl)c6)CC5)nn4)CC3)C1)=N[C@@H](C)c1nnc(C)n1-2 [I-651] | < 0.5 µM |  | > 3 µM | > 3 µM |  | 
16 | CC[C@@H]1N=C(c2ccc(C3CCC4(CCCN(c5ccc(C(=O)N[C@H]6CC[C@H](Oc7ccc(C#N)c(Cl)c7)CC6)nn5)C4)CC3)cc2)c2c(sc(C)c2C)-n2c(C)nnc21 (stereo partly drawn) [I-652] | < 0.5 µM |  | < 0.5 µM | > 3 µM |  | 
17 | CC[C@@H]1N=C(c2ccc(C3CCC4(CCCN(c5ccc(C(=O)N[C@H]6CC[C@H](Oc7ccc(C#N)c(Cl)c7)CC6)nn5)C4)CC3)cc2)c2c(sc(C)c2C)-n2c(C)nnc21 (stereo partly drawn) [I-653] |  | < 0.5 µM |  |  | < 0.5 µM | > 3 µM
18 | COC[C@@H]1N=C(c2ccc(C3CCC4(CCCN(c5ccc(C(=O)N[C@H]6CC[C@H](Oc7ccc(C#N)c(Cl)c7)CC6)nn5)C4)CC3)cc2)c2c(sc(C)c2C)-n2c(C)nnc21 (stereo partly drawn) [I-654] | < 0.5 µM |  | < 0.5 µM |  |  | > 3 µM
19 | COC[C@@H]1N=C(c2ccc(C3CCC4(CCCN(c5ccc(C(=O)N[C@H]6CC[C@H](Oc7ccc(C#N)c(Cl)c7)CC6)nn5)C4)CC3)cc2)c2c(sc(C)c2C)-n2c(C)nnc21 (stereo partly drawn) [I-655] |  | 0.5 to 1.5 µM |  |  | < 0.5 µM | < 0.5 µM
20 | COCC[C@@H]1N=C(c2ccc(C3CCC4(CCCN(c5ccc(C(=O)N[C@H]6CC[C@H](Oc7ccc(C#N)c(Cl)c7)CC6)nn5)C4)CC3)cc2)c2c(sc(C)c2C)-n2c(C)nnc21 (stereo partly drawn) [I-656] | < 0.5 µM |  | < 0.5 µM | > 3 µM |  | 
21 | COCC[C@@H]1N=C(c2ccc(C3CCC4(CCCN(c5ccc(C(=O)N[C@H]6CC[C@H](Oc7ccc(C#N)c(Cl)c7)CC6)nn5)C4)CC3)cc2)c2c(sc(C)c2C)-n2c(C)nnc21 (stereo partly drawn) [I-657] |  | 0.5 to 1.5 µM |  |  | < 0.5 µM | > 3 µM
22 | COC[C@@H]1N=C(c2ccc(C3CCC4(CCN(c5ccc(C(=O)N[C@H]6CC[C@H](Oc7ccc(C#N)c(Cl)c7)CC6)nn5)CC4)C3)cc2)c2c(sc(C)c2C)-n2c(C)nnc21 (stereo partly drawn) [I-658] | < 0.5 µM |  | < 0.5 µM | < 0.5 µM |  | 
23 | COC[C@@H]1N=C(c2ccc(C3CCC4(CCN(c5ccc(C(=O)N[C@H]6CC[C@H](Oc7ccc(C#N)c(Cl)c7)CC6)nn5)CC4)C3)cc2)c2c(sc(C)c2C)-n2c(C)nnc21 (stereo partly drawn) [I-659] |  | < 0.5 µM |  |  | < 0.5 µM | < 0.5 µM

Second part, led by results:

Row | GI50 (VCaP cells; Homo sapiens, VCaP, 72 h) | GI50 (VCaP cells) | Compound | GI50 ([1]; 72 h) | GI50 ([2]; 72 h) | GI50 [1] | GI50 [2]
24 | < 0.5 µM |  | Cc1sc2c(c1C)C(c1ccc(OCC3CCC4(CCCN(c5ccc(C(=O)N[C@H]6CC[C@H](Oc7ccc(C#N)c(Cl)c7)CC6)nn5)C4)C3)cc1)=N[C@@H](C)c1nnc(C)n1-2 (stereo partly drawn) [I-626] | < 0.5 µM | < 0.5 µM |  | 
25 |  | < 0.5 µM | Cc1sc2c(c1C)C(c1ccc(OCC3CCC4(CCCN(c5ccc(C(=O)N[C@H]6CC[C@H](Oc7ccc(C#N)c(Cl)c7)CC6)nn5)C4)C3)cc1)=N[C@@H](C)c1nnc(C)n1-2 (stereo partly drawn) [I-627] |  |  | < 0.5 µM | < 0.5 µM
26 | < 0.5 µM |  | Cc1sc2c(c1C)C(Oc1ccc(C3CC4(CCN(c5ccc(C(=O)N[C@H]6CC[C@H](Oc7ccc(C#N)c(Cl)c7)CC6)nn5)CC4)C3)cc1)=NC(Cc1ncco1)c1nnc(C)n1-2 (stereo partly drawn) [I-631] | > 3 µM | > 3 µM |  | 
27 |  | < 0.5 µM | Cc1sc2c(c1C)C(c1ccc(CC3CCC4(CCCN(c5ccc(C(=O)N[C@H]6CC[C@H](Oc7ccc(C#N)c(Cl)c7)CC6)nn5)C4)C3)cn1)=N[C@@H](C)c1nnc(C)n1-2 (stereo partly drawn) [I-635] |  |  | < 0.5 µM | < 0.5 µM
28 |  | < 0.5 µM | Cc1sc2c(c1C)C(c1ccc(CC3CCC4(CCCN(c5ccc(C(=O)N[C@H]6CC[C@H](Oc7ccc(C#N)c(Cl)c7)CC6)nn5)C4)C3)cn1)=N[C@@H](C)c1nnc(C)n1-2 (stereo partly drawn) [I-636] |  |  | < 0.5 µM | 0.5 to 1.5 µM
29 |  | < 0.5 µM | Cc1sc2c(c1C)C(c1ccc(OCC3CCC4(CCCN(c5ccc(C(=O)N[C@H]6CC[C@H](Oc7ccc(C#N)c(Cl)c7)CC6)nn5)C4)C3)cc1)=N[C@@H](C)c1nnc(C)n1-2 (stereo partly drawn) [I-637] |  |  | < 0.5 µM | < 0.5 µM
30 | > 3 µM |  | Cc1sc2c(c1C)C(c1ccc(CC3CC4(CCCN(c5ccc(C(=O)N[C@H]6CC[C@H](Oc7ccc(C#N)c(Cl)c7)CC6)nn5)C4)C3)cn1)N[C@@H](Cc1ncco1)c1nnc(C)n1-2 (stereo partly drawn) [I-642] | < 0.5 µM | > 3 µM |  | 
31 | < 0.5 µM |  | Cc1sc2c(c1C)C(c1ccc(CCC3CC4(CCCN(c5ccc(C(=O)N[C@H]6CC[C@H](Oc7ccc(C#N)c(Cl)c7)CC6)nn5)C4)C3)cn1)N[C@@H](Cc1ncco1)c1nnc(C)n1-2 (stereo partly drawn) [I-643] | < 0.5 µM | > 3 µM |  | 
32 |  | < 0.5 µM | Cc1sc2c(c1C)C(c1ccc(CCC3CC4(CCCN(c5ccc(C(=O)N[C@H]6CC[C@H](Oc7ccc(C#N)c(Cl)c7)CC6)nn5)C4)C3)cn1)N[C@@H](Cc1ncco1)c1nnc(C)n1-2 (stereo partly drawn) [I-644] |  |  | < 0.5 µM | > 3 µM
33 | < 0.5 µM |  | COCC[C@@H]1N=C(c2ccc(CC3CC4(CCN(c5ccc(C(=O)N[C@H]6CC[C@H](Oc7ccc(C#N)c(Cl)c7)CC6)nn5)CC4)C3)cc2)c2c(sc(C)c2C)-n2c(C)nnc21 [I-660] | < 0.5 µM | 0.5 to 1.5 µM |  | 
34 | < 0.5 µM |  | COCC[C@@H]1N=C(c2ccc(OC3CC4(CCCN(c5ccc(C(=O)N[C@H]6CC[C@H](Oc7ccc(C#N)c(Cl)c7)CC6)nn5)C4)C3)cc2)c2c(sc(C)c2C)-n2c(C)nnc21 (stereo partly drawn) [I-662] | < 0.5 µM | 0.5 to 1.5 µM |  | 
35 |  | < 0.5 µM | COCC[C@@H]1N=C(c2ccc(OC3CC4(CCCN(c5ccc(C(=O)N[C@H]6CC[C@H](Oc7ccc(C#N)c(Cl)c7)CC6)nn5)C4)C3)cc2)c2c(sc(C)c2C)-n2c(C)nnc21 (stereo partly drawn) [I-663] |  |  | < 0.5 µM | < 0.5 µM
